Data: PMC7669869, “AdipoR1/AdipoR2 dual agonist recovers nonalcoholic steatohepatitis and related fibrosis via endoplasmic reticulum-mitochondria axis” (Nature Communications, 2020)
Several values for one entry are separate records, joined by “and”; a condition that tells them apart may be missing. Equal values may be shown once. Non-standard residues stand in square brackets, D forms with d. Residues, ends and D or L forms follow the SMILES beside them. Nva = CCC[C@H](N)C(=O)O

What was measured:
[1] = system: HFD induced NASH mice; experiment: HFD mice: insulin tolerance test (ITT); format: in vivo, mouse; conditions: JT003 500 μg kg−1, in words
Procedure: For insulin tolerance test, one week after OGTT assay, 6 h fasted mice were treated with JT003, and the baseline blood glucose level was measured. An hour later, 0.25 U kg^−1 insulin (Novolin R, Denmark) were intraperitoneal injection to mice, blood glucose level was measured at 15, 30, 45, 60 min

[2] = system: HFD induced NASH mice; experiment: HFD mice: oral glucose tolerance test (OGTT); format: in vivo, mouse; conditions: JT003 500 μg kg−1, in words
Procedure: Fasting blood glucose was measured using OneTouch UltraVue Blood Glucose Meter and test strips (Johnson&Johnson, USA) from tail nicks. After HFD fed for 14 weeks and JT003 treated for 2 weeks, oral glucose tolerance tests were performed on 8 h fasted mice. 0.5 g ml^−1 D-glucose solution (Sigma-Aldrich, USA) were oral injected to mice (2 g kg^−1 of bodyweight), blood glucose level was recorded at baseline, 15, 30, 60, 120 min

[3] = Serum stability assay (RP-HPLC); format: in vitro ADME; conditions: for Fraction of peptide remaining, Supplementary Figure 5: mouse serum
Procedure: The stability of candidate peptides was investigated following procedure. […] Ice-cold acetonitrile was added to terminate the reaction. Vortex and stand for 1 min, deionized water with 1% TFA was added to the mixture to further terminate the reaction. Mixtures were then centrifuged (13,000g, 10 min) to obtain the supernatant. RP-HPLC-MS was applied to analysis the content of candidate peptides. The serum stability of candidate peptides was represented as the retention rate of each peptide.

[4] = system: CCl4 induced liver fibrosis mice; experiment: CCl4 mice: apoptosis assay (TUNEL); format: in vivo, mouse; set-up: unit not given here; conditions: CCl4 + JT003 mice
Procedure: Male mice liver fibrosis was induced by intraperitoneal injection of 20% CCl4 (Sigma, USA) diluted in corn oil (Aladdin, China) every 3 days for 6 weeks (n = 6; 5 ml kg^−1 body weight). Mice injected with equivalent volume of corn oil serves as control group (n = 6). Liver fibrosis mice treated with JT003 for 3 weeks were used to evaluated the pharmacological effects (n = 6; 500 μg kg^−1; daily intraperitoneal injection).
TUNEL assay was performed using 5 μm liver sections and the apoptotic cells were identified using a Cell Death Detection kit (Beyotime Biotechnology, Shanghai, China). And then the slices were counterstained with DAPI (Life science, ThermoFisher Scientific, USA). Six random fields from 6 slides per mice were examined, and the TUNEL-positive red area within the slides were counted by two individuals who were blinded to the treatment.

[5] = system: CCl4 induced liver fibrosis mice; experiment: CCl4 mice: serum ALT, AST and liver HYP; format: in vivo, mouse; conditions: Figure 5b; CCl4 + JT003 group; single animals, n = 5
[6] = system: HFD induced NASH mice; experiment: HFD mice: liver histology (HE, PAS, Oil Red O); format: in vivo, mouse; conditions: JT003 500 μg kg−1 i.p. daily 4 weeks, in words
Procedure: The NASH model was conducted with feeding a HFD for 16 weeks combine with a MCD diet (Methionine/Choline Deficient Diet, Medicience, China) in the last 4 weeks. Mice administered a MCS diet (Methionine/Choline Sufficient Diet, Medicience, China) serves as control group. NAFLD or NASH mice treated with JT003 for 4 weeks were used to evaluate the pharmacological effects (n = 6; 500 μg kg^−1; daily intraperitoneal injection). Food and water were provided ad libitum. The body weight of mice was examined every 3 days. The diet was renewed every 7 days. JT003 was diluted in PBS.
The levels of TG and HYP in liver tissue were detected with certain commercial assay kit (Nanjing Jiancheng Bioengineering Institute, China). Formalin-fixed liver tissues were embedded in paraffin, sectioned into 5 μm slices. After deparaffinization and rehydration of the section slices, they were stained with Haematoxylin and Eosin or Periodic Acid-Schiff. For the detection of liver collagen content, Sirius Red staining for collagen was performed. OCT-embedded frozen liver tissues were sectioned into 12 μm slices, and Oil Red O staining was performed. The cryostat-cut slices were stained with freshly prepared Oil Red O working solution for 7 min Two independent experimenters who were blinded to the treatment evaluated the staining slides and analyzed the score for steatosis, glucogen accumulation and collagen proliferation area.

Structure (SMILES): CCC[C@H](NC(=O)[C@@H]1CCCN1)C(=O)N[C@@H](CC(C)C)C(=O)N[C@@H](Cc1ccc(O)cc1)C(=O)N[C@@H](Cc1ccc(O)cc1)C(=O)N[C@@H](Cc1ccccc1)C(=O)N[C@@H](C)C(N)=O [JT003] (H-P[Nva]LYYFA-NH2)
- HFD-induced insulin resistance, insulin tolerance test [1]: obviously ameliorated
- HFD-induced insulin resistance, oral glucose tolerance test [2]: obviously ameliorated
- Fraction of peptide remaining, Supplementary Figure 5 ([3]; time 0 (unit not given), replicate 1): 0.9904
- Fraction of peptide remaining, Supplementary Figure 5 ([3]; time 0 (unit not given), replicate 2): 1.127
- Fraction of peptide remaining, Supplementary Figure 5 ([3]; time 0 (unit not given), replicate 3): 0.9633
- Fraction of peptide remaining, Supplementary Figure 5 ([3]; time 1 (unit not given), replicate 2): 0.7303
- Fraction of peptide remaining, Supplementary Figure 5 ([3]; time 1 (unit not given), replicate 3): 0.7063
- Fraction of peptide remaining, Supplementary Figure 5 ([3]; time 2 (unit not given), replicate 1): 0.4963
- Fraction of peptide remaining, Supplementary Figure 5 ([3]; time 2 (unit not given), replicate 2): 0.5281
- Fraction of peptide remaining, Supplementary Figure 5 ([3]; time 2 (unit not given), replicate 3): 0.4921
- Fraction of peptide remaining, Supplementary Figure 5 ([3]; time 3 (unit not given), replicate 1): 0.4291
- Fraction of peptide remaining, Supplementary Figure 5 ([3]; time 3 (unit not given), replicate 2): 0.4706
- Fraction of peptide remaining, Supplementary Figure 5 ([3]; time 3 (unit not given), replicate 3): 0.4115
- Fraction of peptide remaining, Supplementary Figure 5 ([3]; time 4 (unit not given), replicate 1): 0.3431
- Fraction of peptide remaining, Supplementary Figure 5 ([3]; time 4 (unit not given), replicate 2): 0.3616
- Fraction of peptide remaining, Supplementary Figure 5 ([3]; time 4 (unit not given), replicate 3): 0.3877
- Fraction of peptide remaining, Supplementary Figure 5 ([3]; time 5 (unit not given), replicate 1): 0.4378
- Fraction of peptide remaining, Supplementary Figure 5 ([3]; time 5 (unit not given), replicate 2): 0.3169
- Fraction of peptide remaining, Supplementary Figure 5 ([3]; time 5 (unit not given), replicate 3): 0.3694
- Fraction of peptide remaining, Supplementary Figure 5 ([3]; time 6 (unit not given), replicate 1): 0.3549
- Fraction of peptide remaining, Supplementary Figure 5 ([3]; time 6 (unit not given), replicate 2): 0.2659
- Fraction of peptide remaining, Supplementary Figure 5 ([3]; time 6 (unit not given), replicate 3): 0.2904
- Fraction of peptide remaining, Supplementary Figure 5 ([3]; time 8 (unit not given), replicate 2): 0.272
- Fraction of peptide remaining, Supplementary Figure 5 ([3]; time 8 (unit not given), replicate 3): 0.2915
- Fraction of peptide remaining, Supplementary Figure 5 ([3]; time 12 (unit not given), replicate 2): 0.1256
- Fraction of peptide remaining, Supplementary Figure 5 ([3]; time 12 (unit not given), replicate 3): 0.2003
- remaining at 12 h, 5 mM ([3]; mouse, 5 mM peptide, 37 °C, 12 h, triplicate, mean, read-out: retention rate after incubation in serum): ~22%
- TUNEL, Supplementary Figure 16 ([4]; replicate 1): 0.177
- TUNEL, Supplementary Figure 16 ([4]; replicate 2): 0.215
- TUNEL, Supplementary Figure 16 ([4]; replicate 3): 0.261
- TUNEL, Supplementary Figure 16 ([4]; replicate 4): 0.303
- TUNEL, Supplementary Figure 16 ([4]; replicate 5): 0.387
- TUNEL, Supplementary Figure 16 ([4]; replicate 6): 0.3
- TUNEL, Supplementary Figure 16 ([4]; replicate 7): 0.353
- TUNEL, Supplementary Figure 16 ([4]; replicate 8): 0.189
- TUNEL, Supplementary Figure 16 ([4]; replicate 9): 0.125
- TUNEL, Supplementary Figure 16 ([4]; replicate 10): 0.252
- alt Enzymatic Activity [5]: 182.294 U/L and 119.931 U/L and 31.0646 U/L and 95.3544 U/L and 50.0405 U/L
- glycogen over accumulation (PAS staining and hepatocyte glycogen analysis) [6]: largely eliminated
- lipid droplets in the liver (Oil red o staining) [6]: remarkably decreased lipid droplets
- steatosis and inflammation area (HE staining) [6]: decreased
